Measured values as given in patent US20080009418A1, “Selective Inhibitors” (Alchemia LTD., priority 2004, published 2008).

Key:
Human δ-opioid (DOP) = molecular target: T1, Human δ-opioid (DOP) (Homo sapiens, UniProt P41143); assay: Radioligand binding, human δ-opioid (DOP) membranes, FlashPlate, [3H]-Bremazocine; details: compound at 10 μM, [3H]-Bremazocine
T1 construct: purchased Perkin Elmer Biosignal
In short: (§1)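 Cloned human receptor membranes were coated onto FlashPlate wells and incubated with radioligand and compound (added from a 0.5 mM DMSO daughter plate) for 1 hour at room temperature in the dark. Scintillation counting gave percent inhibition, with DMSO defining total and reference ligand defining non-specific binding.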

Human κ-Opioid (KOP) = molecular target: T2, Human κ-Opioid (KOP) (Homo sapiens, UniProt P41145); assay: Radioligand binding, human κ-opioid (KOP) membranes, filtration, [3H]-Diprenorphine; details: compound at 10 μM, [3H]-Diprenorphine
T2 construct: purchased Perkin Elmer Biosignal
In short: (§2)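 Membranes from cloned human receptors were incubated with compound and radioligand for 1 hour at room temperature. Bound ligand was collected on 0.3% PEI-soaked filters, washed with cold 50 mM Tris-HCl pH 7.4, and counted by scintillation. Percent inhibition was computed against DMSO totals and reference-ligand nonspecific wells.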

Human Melanocortin (MC3) = molecular target: T3, Human Melanocortin (MC3) (Homo sapiens, UniProt P41968); assay: Radioligand binding, human melanocortin MC3 membranes, FlashPlate, [125I]-NDP-αMSH; details: compound at 10 μM, [125I]-NDP-αMSH
T3 construct: purchased Perkin Elmer Biosignal
In short: as §1

Human Melanocortin (MC4) = molecular target: T4, Human Melanocortin (MC4) (Homo sapiens, UniProt P32245); assay: Radioligand binding, human melanocortin MC4 membranes, FlashPlate, [125I]-NDP-αMSH; details: compound at 10 μM, [125I]-NDP-αMSH
T4 construct: purchased Perkin Elmer Biosignal
In short: as §1

Human melanocortin (MC5) = molecular target: T5, Human melanocortin (MC5) (Homo sapiens, UniProt P33032); assay: Radioligand binding, human melanocortin MC5 membranes, FlashPlate, [125I]-NDP-αMSH; details: compound at 10 μM, [125I]-NDP-αMSH
T5 construct: purchased Perkin Elmer Biosignal
In short: as §1

[1] = molecular target: T6, Human melanin-concentrating hormone (MCH1) (Homo sapiens, UniProt Q99705); assay: Radioligand binding, human melanin-concentrating hormone MCH1 membranes, FlashPlate, [125I]-S36057; details: compound at 10 μM
T6 construct: purchased Perkin Elmer Biosignal
In short: as §1

Human μ-opioid (MOP) = molecular target: T7, Human μ-opioid (MOP) (Homo sapiens, UniProt P35372); assay: Radioligand binding, human μ-opioid (MOP) membranes, FlashPlate, [3H]-Naloxone; details: compound at 10 μM, [3H]-Naloxone
T7 construct: purchased Perkin Elmer Biosignal
In short: as §1

Human neurokinin (NK1) = molecular target: T8, Human neurokinin (NK1) (Homo sapiens, UniProt P25103); assay: Radioligand binding, human neurokinin NK1 membranes, filtration, [125I]-Substance P; details: compound at 10 μM, [125I]-Substance P
T8 construct: purchased Perkin Elmer Biosignal
In short: as §2

[2] = molecular target: T9, Human neuropeptide Y (NPY-Y1) (Homo sapiens, UniProt P25929); assay: Radioligand binding, human neuropeptide Y NPY-Y1 membranes, FlashPlate, [125I]-PYY; details: compound at 10 μM, [125I]-PYY
T9 construct: purchased Perkin Elmer Biosignal
T9 sequence (P25929 1-384): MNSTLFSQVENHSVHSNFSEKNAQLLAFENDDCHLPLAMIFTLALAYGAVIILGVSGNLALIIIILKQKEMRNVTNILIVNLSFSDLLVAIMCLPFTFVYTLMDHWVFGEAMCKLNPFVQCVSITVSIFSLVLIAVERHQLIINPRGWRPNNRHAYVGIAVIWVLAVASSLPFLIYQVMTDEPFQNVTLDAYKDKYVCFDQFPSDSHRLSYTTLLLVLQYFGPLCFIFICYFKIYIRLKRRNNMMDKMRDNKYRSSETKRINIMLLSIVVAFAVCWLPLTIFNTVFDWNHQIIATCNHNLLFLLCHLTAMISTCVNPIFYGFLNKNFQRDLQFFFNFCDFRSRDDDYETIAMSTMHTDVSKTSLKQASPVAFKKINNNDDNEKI
In short: as §1

Human opioid (ORL1) = molecular target: T10, Human opioid (ORL1) (Homo sapiens, UniProt P41146); assay: Radioligand binding, human opioid ORL1 membranes, FlashPlate, [125I]-Nociceptin; details: compound at 10 μM, [125I]-Nociceptin
T10 construct: purchased Perkin Elmer Biosignal
In short: as §1

Mouse urotensin (mUR2) = molecular target: T11, Mouse urotensin (mUR2) (Mus musculus, UniProt Q8VIH9); assay: Radioligand binding, mouse urotensin mUR2 membranes, FlashPlate, [125I]-Urotensin II; details: compound at 10 μM, [125I]-Urotensin II
T11 construct: purchased Perkin Elmer Biosignal
T11 sequence (Q8VIH9 1-385): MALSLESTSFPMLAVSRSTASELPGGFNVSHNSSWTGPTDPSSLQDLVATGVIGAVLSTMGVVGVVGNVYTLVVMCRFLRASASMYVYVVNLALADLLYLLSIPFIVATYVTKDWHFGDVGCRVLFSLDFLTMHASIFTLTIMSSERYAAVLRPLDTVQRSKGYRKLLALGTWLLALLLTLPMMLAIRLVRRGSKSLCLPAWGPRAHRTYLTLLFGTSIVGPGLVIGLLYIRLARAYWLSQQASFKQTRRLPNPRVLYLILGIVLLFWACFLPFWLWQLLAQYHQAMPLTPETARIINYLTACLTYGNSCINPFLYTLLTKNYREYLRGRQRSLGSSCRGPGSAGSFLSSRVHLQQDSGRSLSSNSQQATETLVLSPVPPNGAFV
In short: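 Cloned mouse urotensin (mUR2) receptor membranes from Perkin Elmer Biosignal were immobilized in FlashPlate microplates using a proprietary coating. Each well got 19.5 μl buffer, then 0.5 μl of DMSO, reference ligand, or compound. Adding 5 μl of [125I]-Urotensin II, diluted to 5× final concentration in binding buffer, started binding. Plates were sealed with TopSeal-A and incubated 1 hour at room temperature in the dark. Wells were counted for 30 seconds each on a TopCount after a 60-second delay, and percentage inhibition was calculated.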

T1 sequence (P41143 whole entry): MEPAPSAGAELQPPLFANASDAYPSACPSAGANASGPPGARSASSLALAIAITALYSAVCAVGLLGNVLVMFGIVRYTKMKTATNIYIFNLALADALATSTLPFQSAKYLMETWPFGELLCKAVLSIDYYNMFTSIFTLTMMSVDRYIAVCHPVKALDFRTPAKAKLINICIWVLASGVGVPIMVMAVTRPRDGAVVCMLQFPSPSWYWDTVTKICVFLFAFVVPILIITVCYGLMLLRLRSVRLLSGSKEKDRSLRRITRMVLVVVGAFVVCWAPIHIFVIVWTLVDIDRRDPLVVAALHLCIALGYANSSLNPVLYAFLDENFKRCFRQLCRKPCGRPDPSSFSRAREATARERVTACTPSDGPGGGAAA
T10 sequence (P41146 whole entry): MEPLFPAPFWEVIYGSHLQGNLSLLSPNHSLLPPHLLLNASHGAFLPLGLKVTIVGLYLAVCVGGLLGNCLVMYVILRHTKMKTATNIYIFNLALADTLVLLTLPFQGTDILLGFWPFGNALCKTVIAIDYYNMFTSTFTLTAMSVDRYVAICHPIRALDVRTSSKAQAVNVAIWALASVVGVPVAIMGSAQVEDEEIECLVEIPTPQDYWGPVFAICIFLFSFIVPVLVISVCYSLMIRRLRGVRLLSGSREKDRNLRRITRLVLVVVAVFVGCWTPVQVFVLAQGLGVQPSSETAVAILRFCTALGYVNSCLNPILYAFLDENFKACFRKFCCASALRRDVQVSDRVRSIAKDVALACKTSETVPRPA
T6 sequence (Q99705 whole entry): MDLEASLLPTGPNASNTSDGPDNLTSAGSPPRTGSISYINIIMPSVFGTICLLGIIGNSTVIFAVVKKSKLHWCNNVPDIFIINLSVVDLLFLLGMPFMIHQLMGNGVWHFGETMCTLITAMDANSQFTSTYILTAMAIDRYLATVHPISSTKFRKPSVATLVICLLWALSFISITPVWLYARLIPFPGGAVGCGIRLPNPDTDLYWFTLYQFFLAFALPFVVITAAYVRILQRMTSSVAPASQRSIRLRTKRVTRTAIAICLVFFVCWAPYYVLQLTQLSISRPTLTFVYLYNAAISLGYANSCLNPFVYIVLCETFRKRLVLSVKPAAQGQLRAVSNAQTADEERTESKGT
T7 sequence (P35372 whole entry): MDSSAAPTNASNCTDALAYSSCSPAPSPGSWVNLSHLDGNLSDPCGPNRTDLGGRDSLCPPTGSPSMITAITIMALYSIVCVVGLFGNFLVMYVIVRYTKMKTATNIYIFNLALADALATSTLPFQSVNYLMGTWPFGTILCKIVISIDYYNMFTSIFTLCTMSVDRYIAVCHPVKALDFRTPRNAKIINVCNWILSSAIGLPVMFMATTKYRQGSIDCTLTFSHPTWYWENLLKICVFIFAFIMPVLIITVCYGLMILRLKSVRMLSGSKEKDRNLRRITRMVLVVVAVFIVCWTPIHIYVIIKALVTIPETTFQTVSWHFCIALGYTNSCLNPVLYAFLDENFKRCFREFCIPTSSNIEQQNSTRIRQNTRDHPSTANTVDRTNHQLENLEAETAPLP
T8 sequence (P25103 whole entry): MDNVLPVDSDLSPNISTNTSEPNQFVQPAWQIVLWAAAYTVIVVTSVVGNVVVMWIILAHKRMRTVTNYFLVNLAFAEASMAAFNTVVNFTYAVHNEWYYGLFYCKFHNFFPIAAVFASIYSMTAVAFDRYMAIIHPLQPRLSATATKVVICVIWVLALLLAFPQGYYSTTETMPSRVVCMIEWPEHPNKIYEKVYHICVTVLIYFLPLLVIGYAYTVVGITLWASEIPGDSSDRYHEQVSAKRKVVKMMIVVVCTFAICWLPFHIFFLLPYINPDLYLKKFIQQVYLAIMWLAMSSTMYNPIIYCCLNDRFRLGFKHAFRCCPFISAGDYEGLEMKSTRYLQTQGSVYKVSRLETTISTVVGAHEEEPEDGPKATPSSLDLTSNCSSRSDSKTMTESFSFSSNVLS
T5 sequence (P33032 whole entry): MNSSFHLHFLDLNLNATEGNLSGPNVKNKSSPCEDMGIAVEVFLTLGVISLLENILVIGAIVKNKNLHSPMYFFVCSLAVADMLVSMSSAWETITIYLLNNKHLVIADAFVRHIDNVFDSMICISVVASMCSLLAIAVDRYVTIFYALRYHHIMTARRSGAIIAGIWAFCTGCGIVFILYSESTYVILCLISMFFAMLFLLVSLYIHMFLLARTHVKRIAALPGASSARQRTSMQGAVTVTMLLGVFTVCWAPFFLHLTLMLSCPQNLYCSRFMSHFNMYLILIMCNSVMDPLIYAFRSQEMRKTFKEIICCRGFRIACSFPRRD
T2 sequence (P41145 whole entry): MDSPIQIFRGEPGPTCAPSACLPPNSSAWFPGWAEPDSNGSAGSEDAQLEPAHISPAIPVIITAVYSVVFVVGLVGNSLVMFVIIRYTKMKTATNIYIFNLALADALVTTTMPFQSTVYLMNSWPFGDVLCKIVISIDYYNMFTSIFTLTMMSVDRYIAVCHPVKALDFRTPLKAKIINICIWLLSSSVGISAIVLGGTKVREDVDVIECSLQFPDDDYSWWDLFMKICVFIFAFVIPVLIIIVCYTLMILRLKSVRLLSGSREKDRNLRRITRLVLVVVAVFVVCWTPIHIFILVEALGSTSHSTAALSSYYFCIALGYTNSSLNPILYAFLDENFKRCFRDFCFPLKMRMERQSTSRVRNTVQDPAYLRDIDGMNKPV
T4 sequence (P32245 whole entry): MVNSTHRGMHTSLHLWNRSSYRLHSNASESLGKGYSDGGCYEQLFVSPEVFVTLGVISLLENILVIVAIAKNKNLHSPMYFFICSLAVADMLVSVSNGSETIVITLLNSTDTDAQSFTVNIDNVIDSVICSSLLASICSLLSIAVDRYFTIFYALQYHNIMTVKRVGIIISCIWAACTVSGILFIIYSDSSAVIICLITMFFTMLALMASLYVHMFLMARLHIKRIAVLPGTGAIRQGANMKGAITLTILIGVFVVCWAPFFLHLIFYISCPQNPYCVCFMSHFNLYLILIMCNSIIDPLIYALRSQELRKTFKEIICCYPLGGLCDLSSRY
T3 sequence (P41968 whole entry): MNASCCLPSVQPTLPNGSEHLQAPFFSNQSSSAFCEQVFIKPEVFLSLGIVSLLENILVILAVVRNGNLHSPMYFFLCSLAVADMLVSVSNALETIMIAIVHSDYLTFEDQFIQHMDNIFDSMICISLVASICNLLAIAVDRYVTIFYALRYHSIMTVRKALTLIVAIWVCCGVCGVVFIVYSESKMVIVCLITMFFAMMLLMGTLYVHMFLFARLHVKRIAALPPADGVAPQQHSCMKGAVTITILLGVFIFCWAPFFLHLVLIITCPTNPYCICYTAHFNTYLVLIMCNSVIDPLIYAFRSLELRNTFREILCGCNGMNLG

Row | Compound | A1: inhibition of radioligand binding (Human δ-opioid (DOP); FlashPlate) | A2: inhibition of radioligand binding (Human κ-Opioid (KOP); filtration) | A3: inhibition of radioligand binding (Human Melanocortin (MC3); FlashPlate) | A4: inhibition of radioligand binding (Human Melanocortin (MC4); FlashPlate) | A5: inhibition of radioligand binding (Human melanocortin (MC5); FlashPlate) | A6: inhibition of radioligand binding ([1]; [125I]-S36057, FlashPlate) | A7: inhibition of radioligand binding (Human μ-opioid (MOP); FlashPlate) | A8: inhibition of radioligand binding (Human neurokinin (NK1); filtration) | A9: inhibition of radioligand binding ([2]; FlashPlate) | A10: inhibition of radioligand binding (Human opioid (ORL1); FlashPlate) | A11: inhibition of radioligand binding (Mouse urotensin (mUR2); FlashPlate) | other results
1 | COC[C@H]1OC(OCc2ccc3ccccc3c2)[C@H](NC(=O)CCCNC(=N)N)[C@@H](OCc2ccc3ccccc3c2)[C@@H]1O (stereo partly shown) [compound 339] | – | – | – | – | – | – | – | – | – | – | – | A1: inhibition of radioligand binding, human δ-opioid (DOP) (Human δ-opioid (DOP)): − (“−” indicates less than 50% inhibition at 10 μM); A2: inhibition of radioligand binding, human κ-opioid (KOP) (Human κ-Opioid (KOP)): − (“−” indicates less than 50% inhibition at 10 μM); A3: inhibition of radioligand binding, human melanocortin (MC3) (Human Melanocortin (MC3)): − (“−” indicates less than 50% inhibition at 10 μM); A4: inhibition of radioligand binding, human melanocortin (MC4) (Human Melanocortin (MC4)): + (“+” indicates greater than 50% inhibition at 10 μM); A5: inhibition of radioligand binding, human melanocortin (MC5) (Human melanocortin (MC5)): + (“+” indicates greater than 50% inhibition at 10 μM); A6: inhibition of radioligand binding, human melanin-concentrating hormone (MCH1) ([1]; [125I]-S36057): + (“+” indicates greater than 50% inhibition at 10 μM); A7: inhibition of radioligand binding, human μ-opioid (MOP) (Human μ-opioid (MOP)): + (“+” indicates greater than 50% inhibition at 10 μM); A8: inhibition of radioligand binding, human neurokinin (NK1) (Human neurokinin (NK1)): + (“+” indicates greater than 50% inhibition at 10 μM); A9: inhibition of radioligand binding, human neuropeptide Y (NPY-Y1) [2]: − (“−” indicates less than 50% inhibition at 10 μM); A10: inhibition of radioligand binding, human opioid (ORL1) (Human opioid (ORL1)): − (“−” indicates less than 50% inhibition at 10 μM); A11: inhibition of radioligand binding, mouse urotensin (mUR2) (Mouse urotensin (mUR2)): − (“−” indicates less than 50% inhibition at 10 μM)
2 | COCC1OC(OCCc2ccccc2)C(NC(=O)CN)C(OCc2ccc3ccccc3c2)C1O (stereo not shown) [compound 225] | − (“−” indicates less than 50% inhibition at 10 μM) | − (“−” indicates less than 50% inhibition at 10 μM) | − (“−” indicates less than 50% inhibition at 10 μM) | − (“−” indicates less than 50% inhibition at 10 μM) | − (“−” indicates less than 50% inhibition at 10 μM) | − (“−” indicates less than 50% inhibition at 10 μM) | − (“−” indicates less than 50% inhibition at 10 μM) | + (“+” indicates greater than 50% inhibition at 10 μM) | − (“−” indicates less than 50% inhibition at 10 μM) | − (“−” indicates less than 50% inhibition at 10 μM) | − (“−” indicates less than 50% inhibition at 10 μM) | –
3 | CSC1OC(COCc2ccccc2)C(O)C(OCc2ccc(Cl)cc2)C1NC(=O)CCN (stereo not shown) [compound 266] | − (“−” indicates less than 50% inhibition at 10 μM) | − (“−” indicates less than 50% inhibition at 10 μM) | − (“−” indicates less than 50% inhibition at 10 μM) | − (“−” indicates less than 50% inhibition at 10 μM) | − (“−” indicates less than 50% inhibition at 10 μM) | − (“−” indicates less than 50% inhibition at 10 μM) | − (“−” indicates less than 50% inhibition at 10 μM) | + (“+” indicates greater than 50% inhibition at 10 μM) | − (“−” indicates less than 50% inhibition at 10 μM) | − (“−” indicates less than 50% inhibition at 10 μM) | − (“−” indicates less than 50% inhibition at 10 μM) | –
4 | NCCC(=O)NC1C(OCc2ccc(Cl)cc2)OC(COCc2ccc(Cl)cc2)C(O)C1OCc1ccc(Cl)cc1 (single isomer, unassigned) [compound 475] | – | – | – | – | – | – | – | – | – | – | – | A1: inhibition of radioligand binding (Human δ-opioid (DOP); human DOP membranes): − (“−” indicates less than 50% inhibition at 10 μM); A2: inhibition of radioligand binding (Human κ-Opioid (KOP); human KOP membranes): − (“−” indicates less than 50% inhibition at 10 μM); A3: inhibition of radioligand binding (Human Melanocortin (MC3); human MC3 membranes): − (“−” indicates less than 50% inhibition at 10 μM); A4: inhibition of radioligand binding (Human Melanocortin (MC4); human MC4 membranes): + (“+” indicates greater than 50% inhibition at 10 μM); A5: inhibition of radioligand binding (Human melanocortin (MC5); human MC5 membranes): + (“+” indicates greater than 50% inhibition at 10 μM); A6: inhibition of radioligand binding ([1]; [125I]-S36057, human MCH1 membranes): − (“−” indicates less than 50% inhibition at 10 μM); A7: inhibition of radioligand binding (Human μ-opioid (MOP); human MOP membranes): − (“−” indicates less than 50% inhibition at 10 μM); A8: inhibition of radioligand binding (Human neurokinin (NK1); human NK1 membranes): + (“+” indicates greater than 50% inhibition at 10 μM); A9: inhibition of radioligand binding ([2]; human NPY-Y1 membranes): − (“−” indicates less than 50% inhibition at 10 μM); A10: inhibition of radioligand binding (Human opioid (ORL1); human ORL1 membranes): − (“−” indicates less than 50% inhibition at 10 μM); A11: inhibition of radioligand binding (Mouse urotensin (mUR2); mouse mUR2 membranes): − (“−” indicates less than 50% inhibition at 10 μM)
5 | COCC1OC(OCc2ccc(Cl)cc2)C(NC(=O)CN)C(OCc2ccc(Cl)cc2)C1O (stereo not shown) [compound 199] | − (“−” indicates less than 50% inhibition at 10 μM) | − (“−” indicates less than 50% inhibition at 10 μM) | − (“−” indicates less than 50% inhibition at 10 μM) | − (“−” indicates less than 50% inhibition at 10 μM) | − (“−” indicates less than 50% inhibition at 10 μM) | − (“−” indicates less than 50% inhibition at 10 μM) | − (“−” indicates less than 50% inhibition at 10 μM) | + (“+” indicates greater than 50% inhibition at 10 μM) | − (“−” indicates less than 50% inhibition at 10 μM) | − (“−” indicates less than 50% inhibition at 10 μM) | − (“−” indicates less than 50% inhibition at 10 μM) | –
